Assay results taken from PubChem BioAssay AID588665 (The Scripps Research Institute Molecular Screening Center, 2011).
Calls of active or inactive are those of the source.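 The calls were made as follows: active = EGR1 protein level in colon cancer cells shifted at least 30% from solvent-only cells, up or down; inactive = shift under 30% either way.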

Molecular target: Early growth response protein 1 (Homo sapiens) (UniProt P18146)
Experiment: EGR1 protein level change in SW620 cells, late-stage follow-up, counter-screen for KLF5 inhibitor project, cell-based, SW620 colorectal carcinoma, chemiluminescent western blot (AID 588665)
Settings: 24 h, at 10 µM, hits give high values

Sequence of Early growth response protein 1 (Homo sapiens) (P18146 whole entry, looked up): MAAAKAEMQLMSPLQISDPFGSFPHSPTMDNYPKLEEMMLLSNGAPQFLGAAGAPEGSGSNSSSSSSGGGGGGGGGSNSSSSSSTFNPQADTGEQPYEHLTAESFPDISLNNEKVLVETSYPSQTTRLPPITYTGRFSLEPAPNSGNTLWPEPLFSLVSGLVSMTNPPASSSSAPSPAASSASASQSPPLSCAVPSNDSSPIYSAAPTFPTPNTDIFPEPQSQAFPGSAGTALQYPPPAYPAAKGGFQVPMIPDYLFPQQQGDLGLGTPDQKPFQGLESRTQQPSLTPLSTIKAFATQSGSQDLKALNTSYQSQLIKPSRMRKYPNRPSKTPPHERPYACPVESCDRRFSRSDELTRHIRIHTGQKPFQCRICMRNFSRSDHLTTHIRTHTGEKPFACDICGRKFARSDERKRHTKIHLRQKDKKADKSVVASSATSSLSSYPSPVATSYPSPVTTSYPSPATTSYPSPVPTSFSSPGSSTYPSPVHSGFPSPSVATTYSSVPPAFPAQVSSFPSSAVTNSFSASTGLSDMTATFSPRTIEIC

Row | inhibition | Compound
1 | -24.8% (inactive) | CN(C(=O)CNC(=O)/C=C/c1cccc(Cl)c1)C1CCS(=O)(=O)C1 (stereo not drawn)
2 | 37% | CN(C(=O)CNC(=O)/C=C/c1cccc(Cl)c1)C1CCS(=O)(=O)CC1
3 | -14.8% (inactive) | CN(C(=O)COC(=O)/C=C/c1cccc([N+](=O)[O-])c1)C1CCS(=O)(=O)C1 (stereo not drawn)
